The subject of assay [1] is D(2) dopamine receptor (Sus scrofa). Description: Compound was evaluated for the ability to displace [3H]-spiperone at Dopamine receptor D2 in porcine anterior pituitary gland as low affinity state.
Assay [2] shares this test system. The assay is described as follows: Proportion of high affinity state of Dopamine receptor D2 measured by compound ability to displace [3H]spiperone from porcine anterior pituitary membranes.

On to `CN1CCc2cc(Br)cc3c2[C@H]1Cc1ccc(O)c(O)c1-3`, for which the D-2 in assay [1] was 49%; in assay [2] it was 62%.
The matching figures for `CN1CCc2cc(N)cc3c2[C@H]1Cc1ccc(O)c(O)c1-3`: 38% and 62%.

The record behind these values is ChEMBL document CHEMBL1124481, “2-Haloaporphines as potent dopamine agonists” (J Med Chem, 1989).
